This is an account of results in US6498243B1, “Epimorphin antagonist and process for producing it” (Sumitomo Electric Industries, Ltd., priority 1996, dated 2002).

Common to all, as to assay type: cell-based
Assay [1] relates to hair follicle morphogenetic action of epimorphin on a maxillary skin. In words: Inhibitory action on morphogenesis of maxillary skin (hair follicle), organ culture. The settings on record: 0.35 mg/ml in DH medium; ICR mouse fetal maxillary skin (13 days of gestation); 3 days of culture; 5% CO2 at 37° C. Here is the method:
(§1) A maxillary skin was removed from the fetus of the ICR pregnant mouse (Nippon Charles River, 13 days of gestation) under a stereoscopic microscope. The maxillary skin taken was placed on Nuclepore membrane filter (SN 110419) floated on a culture medium (DH medium, or 0.35 mg/ml polypeptide A-containing DH medium). Organ culture was performed in 5% CO2 at 37° C. to investigate the effect of polypeptide A on the morphogenesis of the hair follicle. […] This manner of inhibition of morphogenesis was exactly the same as in treatment with MC-1, i.e., antibodies inhibiting the function of epimorphin.

Assay [2] concerns morphogenetic action of epimorphin on a pulmonary primordium. In words: Inhibitory action on morphogenesis of bronchus, organ culture of pulmonary primordium. The settings on record: 0.35 mg/ml in DH medium; ICR mouse fetal pulmonary primordium (12 days of gestation); 3 days of culture; 5% CO2 at 37° C. Here is the method:
as §1, with “pulmonary primordium” for “maxillary skin”, “12” for “13”, “bronchus.” for “hair follicle.”

The test system of assay [3] is cell strain C3H/10T1/2clone8. In words: Cell adhesion to coated dishes (O.D. at 260 nm of bound cells). The note with it: one hour; for cell adhesion compared with modified epimorphins: coated dishes, C3H/10T1/2clone8 cells; for O.D. at 260 nm (number of the cells bound to the dishes, indicator of cell adhesion): specimen coated on suspension culture dishes, C3H/10T1/2clone8 cells in DH medium with 20 mg/ml bovine serum albumin, control (untreated) 0.0194. The text has this:
The polypeptides A, B and C of the present invention obtained in Example 1, and the modified epimorphins (fragment (123) and fragment (2), each having the same cell adhesion capacity as that of natural type epimorphin) were coated on suspension culture medium dishes. After drying, the dishes were washed once with 8M urea/lysis buffer. Then, the dishes were washed 5 times with PBS^−, and the cell strain C3H/10T1/2clone8 (Dainippon Pharmaceutical Co., Ltd., 08-226) was sprinkled on the dishes using D-MEM/F-12 culture medium (GIBCO BRL, 12400-024; hereinafter called “DH medium”) containing 20 mg/ml bovine serum albumin (SIGMA, A-7030). One hour later, the dishes were washed 3 times with PBS^−, and then the cells were collected using 0.5N NaOH. The O.D. at 260 nm was measured to determine the number of the cells bound to the dishes. The cell count was used as an indicator of the cell adhesion of each specimen. The O.D.'s found were 1.5237 for polypeptide A, 1.4251 for polypeptide B, 1.4697 for polypeptide C, 1.4959 for fragment (123), 1.4478 for fragment (2), and 0.0194 for control (untreated).

In the case of “polypeptide A: 19 amino acids, 1st (N-terminal) to 19th of the functional domain (SEQ ID NO: 8) of natural type mouse epimorphin, chemically synthesized (NGNRTSVDLRIRRTQHSVL; listed as Mus musculus)”, in assay [1], the “morphogenesis of hair follicles” value is listed as “markedly inhibited”. Besides, the “morphogenesis of the bronchus” value in assay [2] is “markedly inhibited”. Further, in assay [3], the “cell adhesion compared with modified epimorphins” value is given as “cell adhesion comparable to that of the modified epimorphins” and the “O.D. at 260 nm (number of the cells bound to the dishes, indicator of cell adhesion)” value was determined as 1.5237.

Consider “polypeptide B: 39 amino acids, 1st (N-terminal) to 39th of the functional domain (SEQ ID NO: 8) of natural type mouse epimorphin (NGNRTSVDLRIRRTQHSVLSRKFVDVMAEYNEAQILFRE; listed as Mus musculus)”, for which, in assay [3], the “cell adhesion compared with modified epimorphins” value is listed as “cell adhesion comparable to that of the modified epimorphins” and the “O.D. at 260 nm (number of the cells bound to the dishes, indicator of cell adhesion)” value was determined as 1.4251.

With “polypeptide C: 41 amino acids, 1st (N-terminal) to 41st of the functional domain (SEQ ID NO: 8) of natural type mouse epimorphin (NGNRTSVDLRIRRTQHSVLSRKFVDVMAEYNEAQILFRERS; listed as Mus musculus)”, in assay [3], the “cell adhesion compared with modified epimorphins” value is “cell adhesion comparable to that of the modified epimorphins” and the “O.D. at 260 nm (number of the cells bound to the dishes, indicator of cell adhesion)” value is given as 1.4697.
